{
  "source": "patent US10471044B2",
  "about": "“Post nerve injury rehabilitation effect-enhancing agent comprising alkyl ether derivative or salt thereof” (FUJIFILM Toyama Chemical Co., Ltd., priority 2014, dated 2019)",
  "key": {"[1]": {"test_system": "forelimb function lost after freezing damage-induced brain injury", "experiment": "Recovery by training of forelimb function lost after freezing damage-induced brain injury", "type": "in vivo, C57BL/6J mice", "conditions": "mice, oral twice a day 30 mg/kg/time plus training 30 min/day, evaluated 21-49 days after damage, compared to the other groups (control, Compound A without training, training only), FIG. 1", "method": "Action of enhancing the recovery effect obtained by training the forelimb function lost after freezing damage-induced brain injury was examined. A test was performed using the following method, by referring to the method described in Journal of Neuroscience Methods, Vol. 193, Issue 1, Pages 82-85 (2010) and Nature, Vol. 462, Issue 7275, Pages 915-919 (2009). Six-week-old male C57BL/6J mice (Charles River Japan) were used in the test. The mice were raised in an environment in which they had free access to feed and water, under a light-dark cycle of 12 hours (light period: 7:00-19:00, dark period: 19:00-7:00). The mice were randomly assigned to the groups. [table] An acrylic rectangular enclosure (length×width×height; 15×8.5×20 cm) in which only the front face of the four faces was transparent, and the other three faces were black was used. A slit measuring 0.5 cm in width×13 cm in height was formed on the right side of the front face when seen from the front. A transparent acrylic plate measuring 8.5 cm in width×1.25 cm in height was used as the feed plate. Diced almonds (K's Factory, Co., Ltd.) were used as the feed for use in the evaluation. […] A case where a mouse was able to extend the left forelimb through the slit, and carry the diced almond into the mouth without dropping it was determined to be successful. […]"}, "[2]": {"test_system": "forelimb function lost after internal capsule hemorrhage-induced brain injury", "experiment": "Recovery by training of forelimb function lost after internal capsule hemorrhage-induced brain injury (mouse models)", "type": "in vivo, C57BL/6J mice", "conditions": "mice, oral once a day 20 mg/kg/time plus training 30 min/day, evaluated 31-63 days after induction, compared to trained control group, FIG. 2", "method": "Action of enhancing the recovery effect obtained by training the forelimb function lost after internal capsule hemorrhage-induced brain injury was examined, using internal capsule hemorrhage mouse models. A test was carried out using the following method, by referring to Plos One, Vol. 8, e67691 (2013) and Behav Brain Res., Vol. 20, Issue 225, Pages 126-34 (2011). Six-week-old male C57BL/6J mice (Charles River Japan) were used in the test. The mice were raised in an environment in which they had free access to feed and water, under a light-dark cycle of 12 hours (light period: 7:00-19:00, dark period: 19:00-7:00). The mice were randomly assigned to the groups. [table] An acrylic rectangular enclosure (length×width×height; 15×8.5×20 cm) in which only the front face of the four faces was transparent, and the other three faces were black was used. A slit measuring 0.5 cm in width×13 cm in height was formed on the right side of the front face when seen from the front. A transparent acrylic plate measuring 8.5 cm in width×1.25 cm in height was used as the feed plate. Diced almonds (K's Factory, Co., Ltd.) were used as the feed for use in the evaluation. […] A case where a mouse was able to extend the left forelimb through the slit, and carry the diced almond into the mouth without dropping it was determined to be successful. […]"}, "[3]": {"test_system": "upper limb function lost after brain injury", "experiment": "Recovery by rehabilitation-like training of upper limb function lost after brain injury (internal capsule hemorrhage cynomolgus monkey models)", "type": "in vivo, cynomolgus monkeys", "conditions": "1 animal", "description": "Test Example 3 Action of enhancing the recovery effect obtained with rehabilitation-like training of the upper limb function lost after brain injury was examined, using internal capsule hemorrhage cynomolgus monkey models.\nTwo male cynomolgus monkeys (Tsukuba Primate Research Center, National Institute of Biomedical Innovation) were used in the test. The cynomolgus monkeys were raised in a breeding cage for old world monkeys (length×width×height; 79×47×80 cm) in which they had free access to feed and water, under a light-dark cycle of 12 hours (light period: 7:00-19:00 dark period: 19:00-7:00).\nMotor learning and an upper limb function evaluation were performed by making the cynomolgus monkeys take feed provided in front of the breeding cage. A 3.5- or 7 mm square piece of apple was used as the feed for use in the evaluation.\nIn order to allow the cynomolgus monkeys to acclimate to the testing apparatus, and determine the dominant hand of each of the individuals, a 7 mm square piece of apple attached to a needle tip was provided in the center of the front face of the cage, and the behavior of the cynomolgus monkey taking the feed was observed. The hand more often used in a total of 150 trials (30 trials a day for 5 days) was determined as its dominant hand. […]"}},
  "data": [
    {"smiles": "OC1CN(CCCOCCc2ccc3sccc3c2)C1", "note": "[Compound A, 1-(3-(2-(1-benzothiophen-5-yl)ethoxy)propyl)azetidin-3-ol]", "values": [
      {"measurement": "relative recovery rate (success rate of taking feed with left forelimb)", "setting": "[1]", "result": "much higher relative recovery rate within a short period"},
      {"measurement": "relative recovery rate (success rate of taking feed with left forelimb)", "setting": "[2]", "result": "much higher relative recovery rate"},
      {"measurement": "recovery after the brain injury (upper limb function)", "setting": "[3]; intramuscular once a day 3 mg/kg/time plus rehabilitation-like training, versus trained animal without Compound A (recovery limited)", "result": "remarkable tendency to recovery was observed"},
      {"measurement": "accurate grasping", "setting": "[3]; intramuscular once a day 3 mg/kg/time, after the beginning of the rehabilitation-like training, not observed in animal without Compound A", "result": "accurate grasping similar to that before the brain injury was observed"}
    ]}
  ]
}
